Test system: Energy system protein genes
Test: DNA chip mRNA expression in yeast, energy system protein genes (Table 4)
Type: cell-based, Saccharomyces cerevisiae S288C
How it was run: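 S. cerevisiae S288C grown at 25° C in YPD were exposed in log phase for two hours to one toxic chemical at a growth-inhibiting, non-lethal concentration; untreated cells served as control. Poly(A) mRNA was reverse-transcribed with Cy3/Cy5-dUTP and hybridized to a whole-genome yeast DNA chip at 65° C for over 12 hours; values are fluorescence ratios versus untreated.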

Measured: The level of expressed mRNA in the presence of chemical substance/The level of expressed mRNA in the absence of chemical substance

O=[N+]([O-])c1cc[n+]([O-])c2ccccc12 [(5), 4-nitroquinolin-N-oxide]
1.8: yeast gene YLR038C, cells incubated two hours with the chemical substance
0.7: yeast gene YJR155W | yeast gene YLR395C, cells incubated two hours with the chemical substance | yeast gene YMR323W, cells incubated two hours with the chemical substance
1.2: yeast gene YJR009C | yeast gene YLR345W | yeast gene YMR118C | yeast gene YMR205C, cells incubated two hours with the chemical substance | yeast gene YPL275W, cells incubated two hours with the chemical substance
1.1: yeast gene YKR097W | yeast gene YPL171C
0.8: yeast gene YJR048W | yeast gene YJR121W, cells incubated two hours with the chemical substance | yeast gene YKL148C, cells incubated two hours with the chemical substance | yeast gene YKR058W, cells incubated two hours with the chemical substance, 25° C., YPD medium | yeast gene YMR073C, cells incubated two hours with the chemical substance | yeast gene YNL241C
2.2: yeast gene YLR295C, cells incubated two hours with the chemical substance, 25° C., YPD medium
1.4: yeast gene YOR142W, cells incubated two hours with the chemical substance
1.7: yeast gene YLR044C, cells incubated two hours with the chemical substance | yeast gene YML129C, cells incubated two hours with the chemical substance
1.9: yeast gene YOL086C, cells incubated two hours with the chemical substance
1.5: yeast gene YKL016C, cells incubated two hours with the chemical substance | yeast gene YKL141W, cells incubated two hours with the chemical substance | yeast gene YPL031C, cells incubated two hours with the chemical substance | yeast gene YPL088W | yeast gene YPL276W, cells incubated two hours with the chemical substance
0.9: yeast gene YLR258W, cells incubated two hours with the chemical substance | yeast gene YML087C | yeast gene YMR261C, cells incubated two hours with the chemical substance | yeast gene YNL202W, cells incubated two hours with the chemical substance | yeast gene YOL165C | yeast gene YPR048W, cells incubated two hours with the chemical substance | yeast gene YPR184W, cells incubated two hours with the chemical substance
1.0: yeast gene YKR009C, cells incubated two hours with the chemical substance | yeast gene YLR377C, cells incubated two hours with the chemical substance | yeast gene YMR267W, cells incubated two hours with the chemical substance, 25° C., YPD medium | yeast gene YOR178C, cells incubated two hours with the chemical substance
1.3: yeast gene YLR134W, cells incubated two hours with the chemical substance | yeast gene YOR388C, cells incubated two hours with the chemical substance | yeast gene YPL240C
0.6: yeast gene YLR304C, cells incubated two hours with the chemical substance | yeast gene YML120C, cells incubated two hours with the chemical substance | yeast gene YNL071W | yeast gene YPL262W, cells incubated two hours with the chemical substance
1.6: yeast gene YKL060C, cells incubated two hours with the chemical substance | yeast gene YLL041C, cells incubated two hours with the chemical substance | yeast gene YLR284C, cells incubated two hours with the chemical substance | yeast gene YLR354C, cells incubated two hours with the chemical substance | yeast gene YNL331C | yeast gene YPL061W, cells incubated two hours with the chemical substance
